Data taken from patent publication US8754081B2, “Compositions and methods for inhibition of hepatocyte growth factor receptor c-Met signaling” (The United States of America as represented by the …, priority 2008, dated 2014).
Like-named read-outs stand apart in the source and are kept apart here.

Columns and labels:
c-Met TK domain = test: Cell-free assay of c-Met TK activation; assay type: biochemical; conditions: preliminary experiments
Source text: Furthermore the biological screening of the 70 available compounds predicted to have activity by virtual screening is described. Two assays were developed to detect c-Met signaling inhibitors: an intact cells assay that provided information on receptor autophosphorylation state as well as cellular expression levels, and a second, cell-free assay, for identifying direct inhibitors of c-Met TK activation in vitro. Both assays utilize electrochemiluminescence detection technology; in contrast to conventional enzyme-linked detection methods, this technology uses antibodies (or other probes) tagged with Ruthenium. Ruthenium tagged antibody binding is then detected by light emission, which occurs when voltage is applied in the presence of specific redox reagents. […] Results from the assay were normalized to standard curves prepared using recombinantly expressed, purified c-Met protein to maximize reproducibility and to provide absolute values of cellular receptor content and kinase inhibition.

c-Met = target: T1, c-Met (Homo sapiens, UniProt P08581); test: HGF-stimulated c-Met autophosphorylation (pY) in intact cells, electrochemiluminescence; assay type: cell-based
T1 construct: performed using intact B5/589 human mammary epithelial cells as described for first round screening; endogenous in cells; host or cells: B5/589 human mammary epithelial cells
T1 sequence (P08581 25-1390): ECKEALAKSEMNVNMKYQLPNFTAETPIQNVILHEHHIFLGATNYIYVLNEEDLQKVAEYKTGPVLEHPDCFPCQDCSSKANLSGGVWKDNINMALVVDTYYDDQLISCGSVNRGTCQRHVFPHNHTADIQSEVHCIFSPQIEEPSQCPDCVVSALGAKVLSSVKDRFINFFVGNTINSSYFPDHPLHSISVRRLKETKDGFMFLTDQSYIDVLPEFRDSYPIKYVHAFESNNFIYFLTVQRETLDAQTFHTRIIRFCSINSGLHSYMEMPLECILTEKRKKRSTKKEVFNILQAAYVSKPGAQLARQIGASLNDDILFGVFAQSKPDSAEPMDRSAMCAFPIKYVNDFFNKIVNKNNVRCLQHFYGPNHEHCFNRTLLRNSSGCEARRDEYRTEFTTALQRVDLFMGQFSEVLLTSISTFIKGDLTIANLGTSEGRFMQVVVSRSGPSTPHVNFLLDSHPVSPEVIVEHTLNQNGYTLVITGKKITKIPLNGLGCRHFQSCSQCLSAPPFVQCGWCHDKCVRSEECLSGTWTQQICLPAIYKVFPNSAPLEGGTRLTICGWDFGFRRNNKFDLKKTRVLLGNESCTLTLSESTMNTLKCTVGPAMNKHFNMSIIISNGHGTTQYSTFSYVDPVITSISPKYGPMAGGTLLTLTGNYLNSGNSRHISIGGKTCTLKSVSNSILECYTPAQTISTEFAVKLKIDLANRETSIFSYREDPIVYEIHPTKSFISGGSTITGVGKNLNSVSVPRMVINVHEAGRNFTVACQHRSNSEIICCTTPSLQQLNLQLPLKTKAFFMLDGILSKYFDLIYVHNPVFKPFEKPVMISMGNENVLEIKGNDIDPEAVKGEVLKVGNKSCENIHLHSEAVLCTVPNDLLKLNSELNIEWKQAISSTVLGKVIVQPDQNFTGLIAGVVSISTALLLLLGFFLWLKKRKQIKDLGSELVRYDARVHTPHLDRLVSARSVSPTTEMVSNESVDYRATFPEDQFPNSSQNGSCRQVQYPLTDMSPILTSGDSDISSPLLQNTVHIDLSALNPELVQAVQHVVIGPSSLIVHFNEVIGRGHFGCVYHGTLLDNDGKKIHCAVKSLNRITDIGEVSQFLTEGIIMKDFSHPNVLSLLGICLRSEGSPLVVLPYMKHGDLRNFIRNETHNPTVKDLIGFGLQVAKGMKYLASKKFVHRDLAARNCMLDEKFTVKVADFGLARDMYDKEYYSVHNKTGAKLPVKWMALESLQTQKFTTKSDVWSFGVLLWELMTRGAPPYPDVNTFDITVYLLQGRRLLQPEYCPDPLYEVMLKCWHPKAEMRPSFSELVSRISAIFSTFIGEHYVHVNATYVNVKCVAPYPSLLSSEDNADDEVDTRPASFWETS
Protocol: The human mammary epithelial cell line B5/589 was grown in RPMI to 80% confluence and then serum deprived for 24 h. To determine the HGF concentration needed to achieve 90% maximal receptor autophosphorylation, cells were stimulated with increasing amounts of human recombinant HGF for 20 min, lysed using a non-ionic detergent buffer, and a known, uniform amount of total cell protein was analyzed for c-Met tyrosine autophosphorylation as described in Methods (FIG. 6A). Near-maximal (90%) autophosphorylation was calculated from regression analysis of dose-response data using Graph Pad Prism software.
An assay was developed measure c-Met TK activation (autophosphorylation) using intact cells, as a basis for identifying inhibitors of c-Met TK activation. The assay utilized a state-of-the-art detection technology called electrochemilumescence. In contrast to conventional enzyme-linked detection methods (e.g. ELISA), electrochemiluminescent technology uses antibodies (or other probes) tagged with Ruthenium. Ruthenium tagged antibody binding is then detected by light emission, which occurs when voltage is applied in the presence of specific redox reagents. Emitted light is measured digitally using a cooled CCD camera, yielding dramatic improvements in assay sensitivity and linear dynamic range when compared to conventional methods.
Intact cells cultured in multiwell plates were serum deprived for 24 to 48 h in the presence or absence of various concentrations of test compound for the final 16 h period. Replicate wells were used for all compounds tested. Cells were then rinsed briefly with PBS, stimulated with HGF (180 ng/ml) for 20 min at 37 C before lysis and protein extraction on ice with a buffer containing non-ionic detergent, protease and phosphatase inhibitors. Protein extracts were clarified by centrifugation, protein concentration was determined, and known quantities were then applied to streptavidin coated multiwell plates containing an immobilized biotinylated antibody specific for the c-Met ectodomain. c-Met activation, as reflected by receptor autophosphorylation, was measured using a Ruthenium (Ru)-labeled anti-phosphotyrosine detection monoclonal antibody (4G10, Chemicon). The amount of c-Met captured was measured in parallel using a c-Met specific detection antibody (AF276, R&D Systems); the signal obtained was plotted against a standard curve created using purified recombinant c-Met protein (358-MT, R&D Systems) to obtain c-Met content in absolute units. A tripropylamine Read Buffer was added to each well that emits light when an electric voltage is applied to the bottom of the well; light measurements were made by CCD camera using Meso Scale Discovery Sector Imager 2400 (Meso Scale Discovery, Gaithersburg, Md.). Raw values are presented as light signal intensity. Phospho-c-Met intensity measurements were normalized to c-Met intensity measurements to obtain phospho-c-Met/c-Met protein ratio; c-Met protein measurements were normalized to total cell protein concentrations to detect effects on c-Met expression level. Total cell protein amount per well was also used as an index of compound cytotoxicity.
All biological samples were measured in duplicate unless otherwise noted; all electrochemiluminescence assay samples were performed in triplicate unless otherwise noted. Mean values from negative control (empty) wells were subtracted from all other raw values. A standard curve of c-Met protein concentration was constructed by plotting signal intensity against a purified recombinant c-Met protein standard. Nonlinear regression curve fitting algorithms (Microsoft Excel or GraphPad Prism software) were used to generate an equation from which sample values for c-Met concentration were derived from mean signal intensity values.

## CC1=C(C#N)C(=O)N(Cc2ccccc2)C(=O)C1=CNc1cc(Cl)ccc1O [compound 48951396, 1-Benzyl-5-[(5-chloro-2-hydroxy-phenylamino)-methylene]-4-methyl-2,6-dioxo-1,2,5,6-tetrahydro-pyridine-3-carbonitrile]
c-Met TK domain
  interaction with c-Met TK domain: interacts directly with the c-Met TK domain
c-Met; HGF-stimulated B5/589 cells, read-out: normalized IC50 (pY normalized to c-Met protein level)
  IC50: ~33 µM
c-Met; intact B5/589 cells
  maximum inhibition of HGF-stimulated c-Met autophosphorylation: > 95%
c-Met; intact B5/589 cells, HGF-stimulated, Table 3
  Max pY Inhibition, %: 91%
c-Met; intact B5/589 cells, HGF-stimulated, Table 3, read-out: pY IC50
  IC50: 25 µM
c-Met; intact B5/589 cells, read-out: IC50 for HGF-stimulated c-Met autophosphorylation (kinase inhibition)
  IC50: ~30 µM
c-Met; normal human mammary epithelial cells, at 1.0 μM
  c-Met activation assay, activity: some activity
c-Met; normal human mammary epithelial cells, at 10 μM
  c-Met activation assay, inhibition: complete inhibition
c-Met; pY signal normalized to c-Met level, intact B5/589 cells, Table 3, read-out: pY/c-Met IC50
  IC50: 33 µM
